Assay in all cases: relative viability (nuclei count vs DMSO), 5 days (fraction); higher = more cells survive
Compound in assay [1]: COc1cc2c(Oc3ccc4[nH]c(C)cc4c3F)ncnc2cc1OCCCN1CCCC1 [Cediranib] + N=C(N)NC(=N)NCCc1ccccc1 [Phenformin] (partner 250 µM)
The method in brief:
(§1)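 Relative viability divides the nuclei count in treated wells by that in vehicle wells. Lung cancer cell lines were seeded in 1536-well plates, dosed by pin tool the next day, and fixed and stained after 5 days in one step with final 0.05% Triton X-100, 1% formaldehyde and 1 ug/ml Hoechst. Dosing was a single drug or a fixed anchor-drug dose plus five library-drug doses (not always all listed) in √10 steps, and values are medians of duplicate plates imaged at 4×.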

Compound in assay [2]: COc1cc2c(Oc3ccc4[nH]c(C)cc4c3F)ncnc2cc1OCCCN1CCCC1 [Cediranib] + Nc1ncn([C@H]2C[C@H](O)[C@@H](CO)O2)c(=O)n1 [Decitabine] (partner 2 µM)
The method in brief:
as §1

Compound in assay [3]: Nc1ncn([C@H]2C[C@H](O)[C@@H](CO)O2)c(=O)n1 [Decitabine] + COc1cc2c(Oc3ccc(NC(=O)C4(C(=O)Nc5ccc(F)cc5)CC4)cc3F)ccnc2cc1OCCCN1CCOCC1 [Foretinib] (partner 0.25 µM)
The method in brief:
as §1

Compound in assay [4]: O=C(C[C@H]1NCCC[C@@H]1O)Cn1cnc2cc(Br)c(Cl)cc2c1=O (racemic) [Halofuginone] + O=C(c1cc(Cc2n[nH]c(=O)c3ccccc23)ccc1F)N1CCN(C(=O)C2CC2)CC1 [Olaparib] (partner 8 µM)
The method in brief:
as §1

With UMC-11, the relative viability in assay [1] (first compound 0.04 µM) was 0.342; in assay [1] (first compound 0.4 µM) it was 0.346; in assay [1] (first compound 4 µM) it was 0.3; in assay [2] (first compound 0.04 µM), 0.617; in assay [2] (first compound 0.1265 µM) it was 0.528; in assay [2] (first compound 0.4 µM) it was 0.557. Moreover, the relative viability in assay [2] (first compound 1.265 µM) was determined as 0.555; in assay [2] (first compound 4 µM) it was 0.633; in assay [3] (first compound 0.04 µM), 0.906; in assay [3] (first compound 0.1265 µM), 0.79; in assay [3] (first compound 0.4 µM), 0.511; in assay [3] (first compound 1.265 µM), 0.399. Further, the relative viability was determined as 0.372 in assay [3] (first compound 4 µM); 0.426 in assay [4] (first compound 0.001 µM); 0.381 in assay [4] (first compound 0.003162 µM); 0.566 in assay [4] (first compound 0.01 µM); 0.471 in assay [4] (first compound 0.03162 µM); 0.226 in assay [4] (first compound 0.1 µM).

The values above are taken from the supplement of paper PMC10307832.
